Measured values taken from patent US5147856A, “Method for inhibiting blood vessel blockage using octapeptide compositions” (Societe de Conseils de Recherches et d'Applications …, priority 1988, dated 1992).
“And” between values parts separate entries of the source, which are not always exact repeats. Identical values can stand only once.

How the values were obtained:
[1] = system: smooth muscle cell proliferation in the aorta and femoral arteries; assay: Primate balloon catheter injury of aorta and femoral arteries (Example 5); type: in vivo, cynomologous macaque; details: aorta and left and right femoral arteries; i.m. slow release system, 50 μg/kg/day; one treated primate vs one control; five weeks
Procedure: In order to obtain a primate coronary angioplasty model which would be suited for evaluation of Angiopeptin, a feasibility study was performed on primates which were made available from the colony at Bowman-Gray Medical School, Winston-Salem, North Carolina. These animals were culled from the colony due to failure of the primates to satisfactorily elevate blood lipids when administered a high cholesterol diet. Young male cynomologous macaques weighing approximately 3.5 kg were used after an equilibration period of more than a week in a primate facility.
The animals were sedated with Ketamine and maintained with 1% halothane in oxygen. The aorta and femoral arteries were injured by a balloon catheter (USCI, Band). After five weeks the primates were anesthetized and sacrificed. The aorta and femoral arteries were removed and fixed in formaldehyde for morphometric analysis. […]
The maximal intimal/media ratio (distance from lumen to internal elastic lamina/distance from internal elastic lamina to external elastic lamina) was determined in each vessel using a digitizing system attached to a light microscope. The determinations were done on three different cross sections of the vessel and each section was measured three times and each three measurements were averaged.

[2] = system: Smooth Muscle Pig Left Coronary Artery Explants; assay: H3-thymidine incorporation in pig left coronary artery explants (Example 7); type: cell-based; details: 24 hr, individual segments
Procedure: Domestic pig hearts were obtained from a slaughter house immediately after the animals were sacrificed. The hearts were harvested and placed in ice-cold Kreb's Ringer buffer and transported to the laboratory. The left coronary artery (LAD) was dissected in aseptic conditions and divided into pieces of 5 mm. The segments were denuded from the endothelium by gently introducing a metallic rod in the lumen. The tissues were placed in sterile multiwell culture dishes in 1 ml of culture media (DMEM with antibiotics) and without fetal calf serum. H^3 -thymidine (2.5 uCi/ml) and increasing concentrations of angiopeptin (10-1000 ng/ml) were added to the medium. Segments which were incubated with 3 different concentrations of forskolin were used as a positive control in each experiment. The incubation period was 24 hr at 37° C. and 5% CO2. The tissues were washed with phosphate saline buffer and placed in a solution of cold thymidine for one hour and then frozen in liquid nitrogen, ground and lysed with a hypotonic solution. The lysed tissues were further incubated with proteinase K overnight at 50° C. The radioactivity, content of protein and DNA were measured.

CC(C)[C@@H]1NC(=O)[C@H](CCCCN)NC(=O)[C@@H](Cc2c[nH]c3ccccc23)NC(=O)[C@H](Cc2ccc(O)cc2)NC(=O)[C@@H](NC(=O)[C@H](N)Cc2ccc3ccccc3c2)CSSC[C@@H](C(=O)N[C@H](C(N)=O)[C@@H](C)O)NC1=O [Angiopeptin, D-Nal-Cys-Tyr-D-Trp-Lys-Val-Cys-Thr-NH2]
Inhibition of smooth muscle cell proliferation, in words [1]: nearly complete inhibition | CPM (H3-thymidine radioactivity) ([2]; Angiopeptin 10 ng/ml): 35113.84 CPM and 46392.32 CPM and 27312.80 CPM and 55980.00 CPM | CPM (H3-thymidine radioactivity) ([2]; Angiopeptin 20 ng/ml): 26279.81 CPM and 39027.27 CPM and 39706.01 CPM and 21562.08 CPM | CPM (H3-thymidine radioactivity) ([2]; Angiopeptin 50 ng/ml): 18942.16 CPM and 24269.18 CPM and 40768.09 CPM and 18983.78 CPM | CPM (H3-thymidine radioactivity) ([2]; Angiopeptin 100 ng/ml): 20794.85 CPM and 32402.31 CPM and 22033.48 CPM and 26227.64 CPM | CPM (H3-thymidine radioactivity) ([2]; Angiopeptin 1000 ng/ml): 18325.51 CPM and 27260.98 CPM and 30226.99 CPM and 32344.58 CPM
